# Test results from patent publication US8952024B2, “Herbicidal pyrimidone derivatives” (E I du Pont de Nemours and Company, priority 2009, dated 2015).
# What was measured:
# Experiment in all cases: Test B pre-/postemergence plant response
# Type in all cases: in vivo
# [1] = system: downy bromegrass (Bromus tectorum)
# Procedure, shortened: (§1)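 Seeds were sown in loam soil/sand blend and treated preemergence with compound in non-phytotoxic solvent mixture containing surfactant; postemergence sprays, same formulation, went onto plants 2 to 18 cm (1- to 4-leaf stage) in peat-based planting medium. Greenhouse 13 to 15 days, then visual rating versus untreated controls, 0 (no effect) to 100 (complete control).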
# [2] = system: giant foxtail (Setaria faberii)
# Procedure, shortened: as §1
# [3] = system: goosegrass (Eleusine indica)
# Procedure, shortened: as §1
# [4] = system: green foxtail (Setaria viridis)
# Procedure, shortened: as §1
# [5] = system: johnsongrass (Sorghum halepense)
# Procedure, shortened: as §1
# [6] = system: kochia (Kochia scoparia); details: Postemergence
# Procedure, shortened: as §1
# [7] = system: lambsquarters (Chenopodium album)
# Procedure, shortened: as §1
# [8] = system: large crabgrass (Digitaria sanguinalis)
# Procedure, shortened: as §1
# [9] = system: pigweed (Amaranthus retroflexus)
# Procedure, shortened: as §1
# [10] = system: velvetleaf (Abutilon theophrasti)
# Procedure, shortened: as §1
# [11] = system: wheat (Triticum aestivum)
# Procedure, shortened: as §1
# [12] = system: woolly cupgrass (Eriochloa villosa)
# Procedure, shortened: as §1
# [13] = system: yellow nutsedge (Cyperus esculentus)
# Procedure, shortened: as §1
# [14] = Postemergence, 31 g ai/ha, 0 to 100 scale (0 no effect, 100 complete control)
# [15] = Postemergence, 62 g ai/ha, scale 0 to 100 (0 no effect, 100 complete control)
# [16] = Postemergence, 125 g ai/ha, scale 0 (no effect) to 100 (complete control), 13 to 15 days
# [17] = Postemergence, 250 g ai/ha, scale 0 to 100 (0 no effect, 100 complete control), 13 to 15 days
# [18] = Preemergence, 31 g ai/ha, scale 0 to 100 (0 no effect, 100 complete control)
# [19] = Preemergence, 62 g ai/ha, scale 0 to 100 (0 no effect, 100 complete control)
# [20] = Preemergence, 125 g ai/ha, scale 0 to 100, 0 no effect, 100 complete control
# [21] = Preemergence, 250 g ai/ha, 0 to 100 scale
structure (smiles),measurement,setting,value
CCc1ccccc1-n1c(-c2ccccc2)ncc(C(=O)C2=C(O)CCCC2=O)c1=O [Compound 255],"Plant response rating, Bromegrass, Downy",[1]; [14],50
same,"Plant response rating, Bromegrass, Downy",[1]; [15],60
same,"Plant response rating, Bromegrass, Downy",[1]; [16],80
same,"Plant response rating, Bromegrass, Downy",[1]; [17],85
same,"Plant response rating, Bromegrass, Downy",[1]; [18],0
same,"Plant response rating, Bromegrass, Downy",[1]; [19],0
same,"Plant response rating, Bromegrass, Downy",[1]; [20],0
same,"Bromegrass, Downy plant response rating",[1]; [21],40
same,"Plant response rating, Foxtail, Giant",[2]; [14],95
same,"Plant response rating, Foxtail, Giant",[2]; [15],98
same,"Plant response rating, Foxtail, Giant",[2]; [16],98
same,"Plant response rating, Foxtail, Giant",[2]; [17],100
same,"Plant response rating, Foxtail, Giant",[2]; [18],15
same,"Plant response rating, Foxtail, Giant",[2]; [19],45
same,"Plant response rating, Foxtail, Giant",[2]; [20],55
same,"Foxtail, Giant plant response rating",[2]; [21],98
same,"Plant response rating, Goosegrass",[3]; [14],90
same,"Plant response rating, Goosegrass",[3]; [15],90
same,"Plant response rating, Goosegrass",[3]; [16],95
same,"Plant response rating, Goosegrass",[3]; [17],98
same,"Plant response rating, Goosegrass",[3]; [18],80
same,"Plant response rating, Goosegrass",[3]; [19],98
same,"Plant response rating, Goosegrass",[3]; [20],100
same,Goosegrass plant response rating,[3]; [21],100
same,"Plant response rating, Foxtail, Green",[4]; [14],85
same,"Plant response rating, Foxtail, Green",[4]; [15],90
same,"Plant response rating, Foxtail, Green",[4]; [16],90
same,"Plant response rating, Foxtail, Green",[4]; [17],90
same,"Plant response rating, Foxtail, Green",[4]; [18],0
same,"Plant response rating, Foxtail, Green",[4]; [19],80
same,"Plant response rating, Foxtail, Green",[4]; [20],80
same,"Foxtail, Green plant response rating",[4]; [21],100
same,"Plant response rating, Johnsongrass",[5]; [14],80
same,"Plant response rating, Johnsongrass",[5]; [15],85
same,"Plant response rating, Johnsongrass",[5]; [16],90
same,"Plant response rating, Johnsongrass",[5]; [17],95
same,"Plant response rating, Johnsongrass",[5]; [18],0
same,"Plant response rating, Johnsongrass",[5]; [19],60
same,"Plant response rating, Johnsongrass",[5]; [20],75
same,Johnsongrass plant response rating,[5]; [21],98
same,"Plant response rating, Kochia","[6]; 31 g ai/ha, 0 to 100 scale (0 no effect, 100 complete control)",10
same,"Plant response rating, Kochia","[6]; 62 g ai/ha, scale 0 to 100 (0 no effect, 100 complete control)",15
same,"Plant response rating, Kochia","[6]; 125 g ai/ha, scale 0 (no effect) to 100 (complete control), 13 to 15 days",15
same,"Plant response rating, Kochia","[6]; 250 g ai/ha, scale 0 to 100 (0 no effect, 100 complete control), 13 to 15 days",65
same,"Plant response rating, Lambsquarters",[7]; [14],90
same,"Plant response rating, Lambsquarters",[7]; [15],95
same,"Plant response rating, Lambsquarters",[7]; [16],98
same,"Plant response rating, Lambsquarters",[7]; [17],100
same,"Plant response rating, Lambsquarters",[7]; [18],98
same,"Plant response rating, Lambsquarters",[7]; [19],100
same,"Plant response rating, Lambsquarters",[7]; [20],100
same,Lambsquarters plant response rating,[7]; [21],100
same,"Plant response rating, Crabgrass, Large",[8]; [14],85
same,"Plant response rating, Crabgrass, Large",[8]; [15],85
same,"Plant response rating, Crabgrass, Large",[8]; [16],90
same,"Plant response rating, Crabgrass, Large",[8]; [17],95
same,"Plant response rating, Crabgrass, Large",[8]; [18],80
same,"Plant response rating, Crabgrass, Large",[8]; [19],95
same,"Plant response rating, Crabgrass, Large",[8]; [20],100
same,"Crabgrass, Large plant response rating",[8]; [21],100
same,"Plant response rating, Pigweed",[9]; [14],80
same,"Plant response rating, Pigweed",[9]; [15],98
same,"Plant response rating, Pigweed",[9]; [16],98
same,"Plant response rating, Pigweed",[9]; [17],100
same,"Plant response rating, Pigweed",[9]; [18],100
same,"Plant response rating, Pigweed",[9]; [19],100
same,"Plant response rating, Pigweed",[9]; [20],100
same,Pigweed plant response rating,[9]; [21],100
same,"Plant response rating, Velvetleaf",[10]; [14],95
same,"Plant response rating, Velvetleaf",[10]; [15],98
same,"Plant response rating, Velvetleaf",[10]; [16],98
same,"Plant response rating, Velvetleaf",[10]; [17],100
same,"Plant response rating, Velvetleaf",[10]; [18],80
same,"Plant response rating, Velvetleaf",[10]; [19],95
same,"Plant response rating, Velvetleaf",[10]; [20],98
same,Velvetleaf plant response rating,[10]; [21],100
same,"Plant response rating, Wheat",[11]; [14],35
same,"Plant response rating, Wheat",[11]; [15],40
same,"Plant response rating, Wheat",[11]; [16],50
same,"Plant response rating, Wheat",[11]; [17],80
same,"Plant response rating, Wheat",[11]; [18],0
same,"Plant response rating, Wheat",[11]; [19],0
same,"Plant response rating, Wheat",[11]; [20],0
same,Wheat plant response rating,[11]; [21],5
same,"Plant response rating, Cupgrass, Woolly",[12]; [14],85
same,"Plant response rating, Cupgrass, Woolly",[12]; [15],95
same,"Plant response rating, Cupgrass, Woolly",[12]; [16],95
same,"Plant response rating, Cupgrass, Woolly",[12]; [17],98
same,"Plant response rating, Cupgrass, Woolly",[12]; [18],0
same,"Plant response rating, Cupgrass, Woolly",[12]; [19],10
same,"Plant response rating, Cupgrass, Woolly",[12]; [20],75
same,"Cupgrass, Woolly plant response rating",[12]; [21],90
same,"Plant response rating, Nutsedge, Yellow",[13]; [14],10
same,"Plant response rating, Nutsedge, Yellow",[13]; [15],15
same,"Plant response rating, Nutsedge, Yellow",[13]; [16],15
same,"Plant response rating, Nutsedge, Yellow",[13]; [17],60
same,"Plant response rating, Nutsedge, Yellow",[13]; [18],10
same,"Plant response rating, Nutsedge, Yellow",[13]; [19],25
same,"Plant response rating, Nutsedge, Yellow",[13]; [20],40
same,"Nutsedge, Yellow plant response rating",[13]; [21],90
